Target: T1, Full-length USP19 (Homo sapiens, UniProt O94966)
T1 construct: Full-length USP19 was purchased from Boston Biochem (E-576); purchased Boston Biochem E-576
T1 sequence (O94966 1-1318): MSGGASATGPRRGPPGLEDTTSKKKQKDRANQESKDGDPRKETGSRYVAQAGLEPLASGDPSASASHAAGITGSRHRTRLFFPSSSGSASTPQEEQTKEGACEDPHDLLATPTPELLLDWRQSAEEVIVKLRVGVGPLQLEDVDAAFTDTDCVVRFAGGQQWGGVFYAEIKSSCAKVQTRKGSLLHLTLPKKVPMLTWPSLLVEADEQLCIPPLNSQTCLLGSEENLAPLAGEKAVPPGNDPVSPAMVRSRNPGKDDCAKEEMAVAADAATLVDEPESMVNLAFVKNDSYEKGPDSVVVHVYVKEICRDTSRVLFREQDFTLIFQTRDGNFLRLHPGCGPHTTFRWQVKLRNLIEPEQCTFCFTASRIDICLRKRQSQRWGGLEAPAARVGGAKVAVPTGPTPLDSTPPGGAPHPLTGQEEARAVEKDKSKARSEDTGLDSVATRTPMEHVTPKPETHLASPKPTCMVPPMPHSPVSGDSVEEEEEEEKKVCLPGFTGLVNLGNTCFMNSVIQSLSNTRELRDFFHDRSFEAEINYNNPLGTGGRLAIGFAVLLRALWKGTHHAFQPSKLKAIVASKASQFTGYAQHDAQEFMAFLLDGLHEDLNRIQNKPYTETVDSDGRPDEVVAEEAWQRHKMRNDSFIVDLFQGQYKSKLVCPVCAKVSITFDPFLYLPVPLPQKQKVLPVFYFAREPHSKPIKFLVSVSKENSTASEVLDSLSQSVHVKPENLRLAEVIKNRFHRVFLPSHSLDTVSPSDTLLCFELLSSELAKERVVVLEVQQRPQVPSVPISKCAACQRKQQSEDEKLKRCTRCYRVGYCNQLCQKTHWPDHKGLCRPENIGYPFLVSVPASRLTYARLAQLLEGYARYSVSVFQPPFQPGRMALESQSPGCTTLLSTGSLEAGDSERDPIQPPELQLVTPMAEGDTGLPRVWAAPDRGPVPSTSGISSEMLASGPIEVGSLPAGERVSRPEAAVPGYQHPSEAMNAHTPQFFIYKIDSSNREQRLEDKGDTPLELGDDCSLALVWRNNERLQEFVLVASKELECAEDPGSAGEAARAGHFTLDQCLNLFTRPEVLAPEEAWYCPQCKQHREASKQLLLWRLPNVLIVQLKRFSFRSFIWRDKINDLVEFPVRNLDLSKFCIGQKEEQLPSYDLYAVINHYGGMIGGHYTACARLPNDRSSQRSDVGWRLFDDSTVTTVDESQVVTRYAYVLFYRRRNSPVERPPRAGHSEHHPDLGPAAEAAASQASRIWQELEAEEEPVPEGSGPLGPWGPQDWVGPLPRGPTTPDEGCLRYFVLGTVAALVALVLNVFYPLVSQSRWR
Assay: USP19 fluorescence polarisation (FP) assay, Ubiquitin-Lys-TAMRA substrate
Assay type: biochemical
Details: average of at least two duplicate experiments
How it was run: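 Fluorescence polarisation (excitation 530 nm, parallel and perpendicular emission at 575 nm) was recorded every 15 min for 90 min after adding the ubiquitin-Lys-TAMRA isopeptide (500 nM as dispensed). Beforehand, the full-length enzyme (2.5 nM as dispensed) sat 30 min at RT with compound diluted from 200 μM to 2 μM in HEPES pH 7.4 buffer with 150 mM NaCl, 5 mM DTT, 0.05% BSA and 0.05% CHAPS. Values normalised to uninhibited wells gave IC50s by non-linear fitting, each the mean of two or more duplicate runs.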

Question: With `N[C@@H]1CCN(C(=O)N2CC[C@@H](Cn3ccc(-c4ccccc4)cc3=O)C3(CCCC3)C2)[C@H](c2ccccc2)C1` [Example 23, 1-(((R)-7-((2S,4R)-4-Amino-2-phenylpiperidine-1-carbonyl)-7-azaspiro[4.5]decan-10-yl)methyl)-4-phenylpyridin-2(1H)-one] as the compound, how does the IC50 read?
Answer: < 10 nM

Question: How did the IC50 turn out when `CN[C@@H]1CCN(C(=O)N2CC[C@@H](Cn3cnc(-c4ccccc4F)cc3=O)C3(CCCC3)C2)[C@H](c2ccc(F)c(F)c2)C1` [Example 142, 3-(((R)-7-((2S,4R)-2-(3,4-Difluorophenyl)-4-(methylamino)piperidine-1-carbonyl)-7-azaspiro[4.5]decan-10-yl)methyl)-6-(2-fluorophenyl)pyrimidin-4(3H)-one] was run?
Answer: < 10 nM

Question: How did the IC50 turn out when `CN[C@@H]1CCN(C(=O)N2CC[C@@H](Cn3cnc(-c4ccccc4C)cc3=O)C3(CCCC3)C2)[C@H](c2cc(F)cc(F)c2)C1` [Example 146, 3-(((R)-7-((2S,4R)-2-(3,5-Difluorophenyl)-4-(methylamino)piperidine-1-carbonyl)-7-azaspiro[4.5]decan-10-yl)methyl)-6-(o-tolyl)pyrimidin-4(3H)-one] was run?
Answer: < 10 nM

Question: `CN[C@@H]1CCN(C(=O)N2CC[C@@H](Cn3ncccc3=O)C3(CCCC3)C2)[C@H](c2ccc(F)cc2F)C1` [Example 129, 2-(((R)-7-((2S,4R)-2-(2,4-Difluorophenyl)-4-(methylamino)piperidine-1-carbonyl)-7-azaspiro[4.5]decan-10-yl)methyl)pyridazin-3(2H)-one] was tested. Which IC50 did it give?
Answer: 10 to 100 nM

Question: How did the IC50 turn out when `N[C@@H]1CCN(C(=O)N2CC[C@@H](Cn3ccc(-c4ccccc4)cc3=O)C3(CCCC3)C2)[C@H](c2cccc(F)c2)C1` [Example 65, 1-(((R)-7-((2S,4R)-4-Amino-2-(3-fluorophenyl)piperidine-1-carbonyl)-7-azaspiro[4.5]decan-10-yl)methyl)-4-phenylpyridin-2(1H)-one] was run?
Answer: < 10 nM

Question: `CN[C@@H]1CCN(C(=O)N2CC[C@@H](Cn3ccc(-c4ccccc4OC)cc3=O)C3(CCCC3)C2)[C@H](c2cccc(F)c2F)C1` [Example 131, 1-(((R)-7-((2S,4R)-2-(2,3-Difluorophenyl)-4-(methylamino)piperidine-1-carbonyl)-7-azaspiro[4.5]decan-10-yl)methyl)-4-(2-methoxyphenyl)pyridin-2(1H)-one] was tested. Which IC50 did it give?
Answer: < 10 nM

Question: `COc1ccccc1-c1cc(=O)n(C[C@@H]2CCN(C(=O)N3CCNC[C@H]3c3cc(F)ccc3F)CC23CCCC3)cn1` [Example 116, 3-(((R)-7-((R)-2-(2,5-Difluorophenyl)piperazine-1-carbonyl)-7-azaspiro[4.5]decan-10-yl)methyl)-6-(2-methoxyphenyl)pyrimidin-4(3H)-one] was tested. Which IC50 did it give?
Answer: < 10 nM

Question: For `CC(C)N[C@@H]1CCN(C(=O)N2CC[C@@H](Cn3cnc(-c4ccccc4)cc3=O)C3(CCCC3)C2)[C@H](c2cc(F)cc(F)c2)C1` [Example 192, 3-(((R)-7-((2S,4R)-2-(3,5-Difluorophenyl)-4-(isopropylamino)piperidine-1-carbonyl)-7-azaspiro[4.5]decan-10-yl)methyl)-6-phenylpyrimidin-4(3H)-one], which IC50 is on record?
Answer: < 10 nM

Question: Which IC50 does the source give for `CN[C@@H]1CCN(C(=O)N2CC[C@@H](Cn3cnc4ccc(F)cc4c3=O)C3(CCCC3)C2)[C@H](c2cccc(F)c2)C1` [Example 167, 6-Fluoro-3-(((R)-7-((2S,4R)-2-(3-fluorophenyl)-4-(methylamino)piperidine-1-carbonyl)-7-azaspiro[4.5]decan-10-yl)methyl)quinazolin-4(3H)-one] here?
Answer: < 10 nM

Question: How did the IC50 turn out when `CN[C@@H]1CCN(C(=O)N2CC[C@@H](Cn3cnc(-c4ccccc4)cc3=O)C3(CCCC3)C2)[C@H](c2ccc(F)c(F)c2)C1` [Example 133, 3-(((R)-7-((2S,4R)-2-(3,4-Difluorophenyl)-4-(methylamino)piperidine-1-carbonyl)-7-azaspiro[4.5]decan-10-yl)methyl)-6-phenylpyrimidin-4(3H)-one] was run?
Answer: < 10 nM

Question: `N[C@@H]1CCN(C(=O)N2CC[C@H](Cn3ccc(-c4ccccc4)cc3=O)C3(CCCC3)C2)[C@H](c2ccccc2)C1` [Example 24, 1-(((S)-7-((2S,4R)-4-Amino-2-phenylpiperidine-1-carbonyl)-7-azaspiro[4.5]decan-10-yl)methyl)-4-phenylpyridin-2(1H)-one] was tested. Which IC50 did it give?
Answer: 1000 to 20000 nM

Question: Which IC50 does the source give for `CN[C@@H]1CCN(C(=O)N2CC[C@@H](Cn3cnc(-c4ccccc4)cc3=O)C3(CCCC3)C2)[C@H](c2ccccc2)C1` [Example 56, 3-(((R)-7-((2S,4R)-4-(Methylamino)-2-phenylpiperidine-1-carbonyl)-7-azaspiro[4.5]decan-10-yl)methyl)-6-phenylpyrimidin-4(3H)-one] here?
Answer: < 10 nM

Question: How did the IC50 turn out when `CN[C@@H]1CCN(C(=O)N2CC[C@@H](Cn3ccc(-c4ccccc4)cc3=O)C3(CCCC3)C2)[C@H](c2cccc(F)c2)C1` [Example 64, 1-(((R)-7-((2S,4R)-2-(3-Fluorophenyl)-4-(methylamino)piperidine-1-carbonyl)-7-azaspiro[4.5]decan-10-yl)methyl)-4-phenylpyridin-2(1H)-one] was run?
Answer: < 10 nM

Question: How did the IC50 turn out when `O=C(NCc1ccccc1)N1CCC(Cn2cnc(-c3ccccc3)cc2=O)C2(CCCC2)C1` (stereo not drawn) [Example 10, N-Benzyl-10-((6-oxo-4-phenylpyrimidin-1(6H)-yl)methyl)-7-azaspiro[4.5]decane-7-carboxamide] was run?
Answer: 100 to 1000 nM

Question: For `CN[C@@H]1CCN(C(=O)N2CC[C@@H](CN3CCOCC3=O)C3(CCCC3)C2)[C@H](c2cc(F)ccc2F)C1` [Example 159, 4-(((R)-7-((2S,4R)-2-(2,5-Difluorophenyl)-4-(methylamino)piperidine-1-carbonyl)-7-azaspiro[4.5]decan-10-yl)methyl)morpholin-3-one], which IC50 is on record?
Answer: < 10 nM

Question: With `O=C(N1CC[C@@H](Cn2cnc(C(F)F)cc2=O)C2(CCCC2)C1)N1CC[C@@H](NCC(F)F)C[C@H]1c1cc(F)ccc1F` [Example 152, 3-(((R)-7-((2S,4R)-4-((2,2-Difluoroethyl)amino)-2-(2,5-difluorophenyl)piperidine-1-carbonyl)-7-azaspiro[4.5]decan-10-yl)methyl)-6-(difluoromethyl)pyrimidin-4(3H)-one] as the compound, how does the IC50 read?
Answer: 10 to 100 nM

Question: `CCN[C@@H]1CCN(C(=O)N2CC[C@@H](Cn3cnc4ccc(F)cc4c3=O)C3(CCCC3)C2)[C@H](c2cc(F)ccc2F)C1` [Example 162, 3-(((R)-7-((2S,4R)-2-(2,5-Difluorophenyl)-4-(ethylamino)piperidine-1-carbonyl)-7-azaspiro[4.5]decan-10-yl)methyl)-6-fluoroquinazolin-4(3H)-one] was tested. Which IC50 did it give?
Answer: < 10 nM

Question: Which IC50 does the source give for `N[C@@H]1CCN(C(=O)N2CC[C@@H](Cn3ccc(-c4ccccc4F)cc3=O)C3(CCCC3)C2)[C@H](c2ccccc2)C1` [Example 61, 1-(((R)-7-((2S,4R)-4-Amino-2-phenylpiperidine-1-carbonyl)-7-azaspiro[4.5]decan-10-yl)methyl)-4-(2-fluorophenyl)pyridin-2(1H)-one] here?
Answer: < 10 nM

Question: `CN[C@@H]1CCN(C(=O)N2CC[C@@H](Cn3cnc(-c4ccccc4)cc3=O)C3(CCCC3)C2)[C@H](c2cc(F)ccc2F)C1` [Example 78, 3-(((R)-7-((2S,4R)-2-(2,5-Difluorophenyl)-4-(methylamino)piperidine-1-carbonyl)-7-azaspiro[4.5]decan-10-yl)methyl)-6-phenylpyrimidin-4(3H)-one] was tested. Which IC50 did it give?
Answer: < 10 nM

Question: How did the IC50 turn out when `Cc1cccnc1CN[C@@H]1CCN(C(=O)N2CC[C@@H](Cn3cnc(-c4ccccc4)cc3=O)C3(CCCC3)C2)[C@H](c2ccccc2)C1` [Example 193, 3-(((R)-7-((2S,4R)-4-(((3-Methylpyridin-2-yl)methyl)amino)-2-phenylpiperidine-1-carbonyl)-7-azaspiro[4.5]decan-10-yl)methyl)-6-phenylpyrimidin-4(3H)-one] was run?
Answer: 10 to 100 nM

Question: For `CN[C@@H]1CCN(C(=O)N2CC[C@@H](Cn3cnc4ccc(F)cc4c3=O)C3(CCCC3)C2)[C@H](c2ccccc2)C1` [Example 101, 6-Fluoro-3-(((R)-7-((2S,4R)-4-(methylamino)-2-phenylpiperidine-1-carbonyl)-7-azaspiro[4.5]decan-10-yl)methyl)quinazolin-4(3H)-one], which IC50 is on record?
Answer: < 10 nM

— US20240327382A1 (ALMAC DISCOVERY LIMITED, priority 2021, published 2024)
